{
  "source": "ChEMBL document CHEMBL3045826",
  "about": "“Synthesis of new derivatives of 2,2-dimethyl-2,3-dihydro-7-benzo[b]furanol with potential antimicrobial activity” (Med Chem Res, 2009)",
  "key": {"Enterococcus hirae [1]": {"test_system": "Enterococcus hirae", "experiment": "Antibacterial activity against Enterococcus hirae ATCC 10541 after 18 hr", "assay_type": "functional", "details": "ATCC 10541, 18 h"}, "Proteus vulgaris [2]": {"test_system": "Proteus vulgaris", "experiment": "Antibacterial activity against Proteus vulgaris NCTC 4635 after 18 hr", "assay_type": "functional", "details": "NCTC 4635, 18 h"}, "Bacillus subtilis [3]": {"test_system": "Bacillus subtilis", "experiment": "Antibacterial activity against Bacillus subtilis ATCC 6633 at 400 ug after 18 hr by disk diffusion method", "assay_type": "functional", "details": "ATCC 6633, 18 h, read-out: DIZ"}, "Pseudomonas aeruginosa [4]": {"test_system": "Pseudomonas aeruginosa", "experiment": "Antibacterial activity against Pseudomonas aeruginosa NCTC 6749 at 400 ug after 18 hr by disk diffusion method", "assay_type": "functional, organism-based"}, "Bacillus subtilis [5]": {"test_system": "Bacillus subtilis", "experiment": "Antibacterial activity against Bacillus subtilis ATCC 6633 after 18 hr", "assay_type": "functional", "details": "ATCC 6633, 18 h"}, "Enterococcus hirae [6]": {"test_system": "Enterococcus hirae", "experiment": "Antibacterial activity against Enterococcus hirae ATCC 10541 at 400 ug after 18 hr by disk diffusion method", "assay_type": "functional", "details": "ATCC 10541, 18 h, read-out: DIZ"}, "Staphylococcus aureus [7]": {"test_system": "Staphylococcus aureus", "experiment": "Antibacterial activity against Staphylococcus aureus ATCC 6538P after 18 hr", "assay_type": "functional"}, "Escherichia coli [8]": {"test_system": "Escherichia coli", "experiment": "Antibacterial activity against Escherichia coli ATCC 10538 after 18 hr", "assay_type": "functional, organism-based"}, "[9]": {"test_system": "Bordetella bronchiseptica", "experiment": "Antibacterial activity against Bordetella bronchiseptica ATCC 461 at 400 ug after 18 hr by disk diffusion method", "assay_type": "functional"}, "Candida albicans [10]": {"test_system": "Candida albicans", "experiment": "Antifungal activity against Candida albicans ATCC 10231 after 18 hr", "assay_type": "functional", "details": "ATCC 10231, 18 h"}, "Candida albicans [11]": {"test_system": "Candida albicans", "experiment": "Antifungal activity against Candida albicans ATCC 10231 at 400 ug after 24 to 48 hr by disk diffusion method", "assay_type": "functional", "details": "read-out: DIZ"}, "Escherichia coli [12]": {"test_system": "Escherichia coli", "experiment": "Antibacterial activity against Escherichia coli ATCC 10538 at 400 ug after 18 hr by disk diffusion method", "assay_type": "functional"}, "Pseudomonas aeruginosa [13]": {"test_system": "Pseudomonas aeruginosa", "experiment": "Antibacterial activity against Pseudomonas aeruginosa ATCC 15442 after 18 hr", "assay_type": "functional", "details": "ATCC 15442, 18 h"}, "Staphylococcus aureus [14]": {"test_system": "Staphylococcus aureus", "experiment": "Antibacterial activity against Staphylococcus aureus ATCC 29213 after 18 hr", "assay_type": "functional", "details": "ATCC 29213, 18 h"}, "Escherichia coli [15]": {"test_system": "Escherichia coli", "experiment": "Antibacterial activity against Escherichia coli ATCC 25922 after 18 hr", "assay_type": "functional, organism-based"}, "Candida albicans [16]": {"test_system": "Candida albicans", "experiment": "Antifungal activity against Candida albicans ATCC 90028 at 400 ug after 24 to 48 hr by disk diffusion method", "assay_type": "functional", "details": "read-out: DIZ"}, "Escherichia coli [17]": {"test_system": "Escherichia coli", "experiment": "Antibacterial activity against Escherichia coli NCTC 8196 at 400 ug after 18 hr by disk diffusion method", "assay_type": "functional"}, "Staphylococcus aureus [18]": {"test_system": "Staphylococcus aureus", "experiment": "Antibacterial activity against Staphylococcus aureus ATCC 29213 at 400 ug after 18 hr by disk diffusion method", "assay_type": "functional", "details": "ATCC 29213, 18 h, read-out: DIZ"}, "Staphylococcus aureus [19]": {"test_system": "Staphylococcus aureus", "experiment": "Antibacterial activity against Staphylococcus aureus NCTC 4163 after 18 hr", "assay_type": "functional", "details": "NCTC 4163, 18 h"}, "Staphylococcus aureus [20]": {"test_system": "Staphylococcus aureus", "experiment": "Antibacterial activity against Staphylococcus aureus ATCC 25923 at 400 ug after 18 hr by disk diffusion method", "assay_type": "functional", "details": "ATCC 25923, 18 h, read-out: DIZ"}, "Candida parapsilosis [21]": {"test_system": "Candida parapsilosis", "experiment": "Antifungal activity against Candida parapsilosis ATCC 22019 at 400 ug after 24 to 48 hr by disk diffusion method", "assay_type": "functional", "details": "Lodderomyces parapsilosis, read-out: DIZ"}, "Pseudomonas aeruginosa [22]": {"test_system": "Pseudomonas aeruginosa", "experiment": "Antibacterial activity against Pseudomonas aeruginosa ATCC 15442 at 400 ug after 18 hr by disk diffusion method", "assay_type": "functional", "details": "ATCC 15442, 18 h, read-out: DIZ"}, "[23]": {"test_system": "Human immunodeficiency virus 1", "experiment": "Antiviral activity against Human immunodeficiency virus 1 infected human MT4 cells assessed as inhibition of virus-induced cytopathogenicity after 4 days by MTT assay", "assay_type": "functional, organism-based", "details": "Human immunodeficiency virus 1, MT4, 96 h"}, "Staphylococcus aureus [24]": {"test_system": "Staphylococcus aureus", "experiment": "Antibacterial activity against Staphylococcus aureus ATCC 25923 after 18 hr", "assay_type": "functional", "details": "ATCC 25923, 18 h"}, "[25]": {"test_system": "Bordetella bronchiseptica", "experiment": "Antibacterial activity against Bordetella bronchiseptica ATCC 461 after 18 hr", "assay_type": "functional, organism-based"}, "Staphylococcus aureus [26]": {"test_system": "Staphylococcus aureus", "experiment": "Antibacterial activity against Staphylococcus aureus ATCC 6538P at 400 ug after 18 hr by disk diffusion method", "assay_type": "functional", "details": "read-out: DIZ"}, "Escherichia coli [27]": {"test_system": "Escherichia coli", "experiment": "Antibacterial activity against Escherichia coli ATCC 25922 at 400 ug after 18 hr by disk diffusion method", "assay_type": "functional"}, "Staphylococcus aureus [28]": {"test_system": "Staphylococcus aureus", "experiment": "Antibacterial activity against Staphylococcus aureus NCTC 4163 at 400 ug after 18 hr by disk diffusion method", "assay_type": "functional", "details": "NCTC 4163, 18 h, read-out: DIZ"}, "Escherichia coli [29]": {"test_system": "Escherichia coli", "experiment": "Antibacterial activity against Escherichia coli NCTC 8196 after 18 hr", "assay_type": "functional, organism-based"}, "Candida albicans [30]": {"test_system": "Candida albicans", "experiment": "Antifungal activity against Candida albicans ATCC 90028 after 18 hr", "assay_type": "functional", "details": "ATCC 90028, 18 h"}, "[31]": {"experiment": "Cytotoxicity against Homo sapiens (human) MT4 cells after 96 hr by MTT assay", "assay_type": "cell-based"}, "Pseudomonas aeruginosa [32]": {"test_system": "Pseudomonas aeruginosa", "experiment": "Antibacterial activity against Pseudomonas aeruginosa NCTC 6749 after 18 hr", "assay_type": "functional, organism-based"}, "Proteus vulgaris [33]": {"test_system": "Proteus vulgaris", "experiment": "Antibacterial activity against Proteus vulgaris NCTC 4635 at 400 ug after 18 hr by disk diffusion method", "assay_type": "functional", "details": "NCTC 4635, 18 h, read-out: DIZ"}, "Candida parapsilosis [34]": {"test_system": "Candida parapsilosis", "experiment": "Antifungal activity against Candida parapsilosis ATCC 22019 after 18 hr", "assay_type": "functional", "details": "Lodderomyces parapsilosis, ATCC 22019, 18 h"}},
  "note": "Activity calls are given as the source filed them. The rule behind the calls is not given here.",
  "data": [
    {"smiles": "CC1(C)Cc2c(Br)c(Br)c(Br)c(O)c2O1", "values": [
      {"measurement": "MIC", "setting": "Enterococcus hirae [1]", "value": 50, "unit": "µg/mL"},
      {"measurement": "MIC", "setting": "Proteus vulgaris [2]", "value": 12.5, "unit": "µg/mL"},
      {"measurement": "zone of inhibition at 400 µg/disc", "setting": "Bacillus subtilis [3]", "value": 21, "unit": "mm"},
      {"measurement": "diameter of the inhibition zone (DIZ)", "setting": "Pseudomonas aeruginosa [4]", "value": "inactive"},
      {"measurement": "MIC", "setting": "Bacillus subtilis [5]", "value": 12.5, "unit": "µg/mL"},
      {"measurement": "zone of inhibition at 400 µg/disc", "setting": "Enterococcus hirae [6]", "value": 16, "unit": "mm"},
      {"measurement": "MIC", "setting": "Staphylococcus aureus [7]", "value": 25, "unit": "µg/mL"},
      {"measurement": "MIC", "setting": "Escherichia coli [8]", "value": "inactive"},
      {"measurement": "diameter of the inhibition zone (DIZ)", "setting": "[9]", "value": "inactive"},
      {"measurement": "MIC", "setting": "Candida albicans [10]", "value": 200, "unit": "µg/mL"},
      {"measurement": "zone of inhibition at 400 µg/disc", "setting": "Candida albicans [11]", "value": 13, "unit": "mm"},
      {"measurement": "diameter of the inhibition zone (DIZ)", "setting": "Escherichia coli [12]", "value": "inactive"},
      {"measurement": "MIC", "setting": "Pseudomonas aeruginosa [13]", "value": 12.5, "unit": "µg/mL"},
      {"measurement": "MIC", "setting": "Staphylococcus aureus [14]", "value": 25, "unit": "µg/mL"},
      {"measurement": "MIC", "setting": "Escherichia coli [15]", "value": "inactive"},
      {"measurement": "zone of inhibition at 400 µg/disc", "setting": "Candida albicans [16]", "value": 14, "unit": "mm"},
      {"measurement": "diameter of the inhibition zone (DIZ)", "setting": "Escherichia coli [17]", "value": "inactive"},
      {"measurement": "zone of inhibition at 400 µg/disc", "setting": "Staphylococcus aureus [18]", "value": 18, "unit": "mm"},
      {"measurement": "MIC", "setting": "Staphylococcus aureus [19]", "value": 25, "unit": "µg/mL"},
      {"measurement": "zone of inhibition at 400 µg/disc", "setting": "Staphylococcus aureus [20]", "value": 18, "unit": "mm"},
      {"measurement": "zone of inhibition at 400 µg/disc", "setting": "Candida parapsilosis [21]", "value": 13, "unit": "mm"},
      {"measurement": "zone of inhibition at 400 µg/disc", "setting": "Pseudomonas aeruginosa [22]", "value": 22, "unit": "mm"},
      {"measurement": "EC50", "setting": "[23]", "value": "> 60", "unit": "µM"},
      {"measurement": "MIC", "setting": "Staphylococcus aureus [24]", "value": 25, "unit": "µg/mL"},
      {"measurement": "MIC", "setting": "[25]", "value": "inactive"},
      {"measurement": "zone of inhibition at 400 µg/disc", "setting": "Staphylococcus aureus [26]", "value": 19, "unit": "mm"},
      {"measurement": "diameter of the inhibition zone (DIZ)", "setting": "Escherichia coli [27]", "value": "inactive"},
      {"measurement": "zone of inhibition at 400 µg/disc", "setting": "Staphylococcus aureus [28]", "value": 17, "unit": "mm"},
      {"measurement": "MIC", "setting": "Escherichia coli [29]", "value": "inactive"},
      {"measurement": "MIC", "setting": "Candida albicans [30]", "value": 200, "unit": "µg/mL"},
      {"measurement": "CC50 at 96 h", "setting": "[31]", "value": 60, "unit": "µM"},
      {"measurement": "MIC", "setting": "Pseudomonas aeruginosa [32]", "value": "inactive"},
      {"measurement": "zone of inhibition at 400 µg/disc", "setting": "Proteus vulgaris [33]", "value": 15, "unit": "mm"},
      {"measurement": "MIC", "setting": "Candida parapsilosis [34]", "value": 200, "unit": "µg/mL"}
    ]}
  ]
}
